Data as given in patent US20250222063A1, “TOPICAL FORMULATION FOR USE IN THE TREATMENT OR PREVENTION OF DRY ITCHY SKIN” (MC2 THERAPEUTICS LTD, priority 2022, published 2025).
Residues, ends and D or L forms follow the SMILES beside them.

Legend:
[1] = tested on: bovine serum albumin (BSA); test: In vitro protein carbamylation assay (14C-potassium cyanate, scintillation counting); format: biochemical; settings: for Degree of carbamylation (% relative to HBSS control): 10 mM nucleophile, 75 μM BSA, 25 μM 14C-Potassium Cyanate, 37° C., 72 hours, n=3; for scavenger potential: summary in words
Method: The tests were performed as described below. 200 μL of a 0.5% BSA solution, 200 μL of test solution and 100 μL of a 5 μCi/mL 14 C-Potassium Cyanate solution was mixed in an Eppendorf tube (corresponding to a final concentration of 75 μM BSA, 25 μM 14 C-Potassium Cyanate, and 10 mM nucleophile). Samples run in triplicates (n=3). The Eppendorf tubes were incubated at 37° C. for 72 hours.
After incubation a volume of 100 μL of each sample was transferred to a new Eppendorf tube containing 100 μL of a 10% trichloroacetic acid (TCA) and kept at 4° C. overnight (for precipitation of BSA). Subsequently, the precipitated BSA was separated from the buffer by centrifugation (10000 rpm, 30 seconds). The supernatant was removed and the BSA pellet 10 was resuspended in 200 μL of a 10% solution of cold TCA (4° C.). The pellet was recovered by centrifugation (10000 rpm, 30 seconds) and supernatant was discarded. The BSA pellet was resuspended in 100 μL purified water (MilliQ) and transferred to a scintillation vial. The Eppendorf tube (previously containing the BSA pellet) was rinsed with an additional 100 μL purified water which al was transferred to the relevant scintillation vial.

[2] = Solubility (stated in words); format: physicochemical; settings: summary in words
[3] = Aqueous stability in HBSS buffer at 40° C. (HPLC-UV); format: physicochemical; settings: for 1 month aqueous stability at 40° C. / 3 month aqueous stability at 40° C.: 3% wt/wt or 0.4% wt/wt in HBSS buffer, glass vials, HPLC-UV, in % (unit assumed); for aqueous stability: summary in words
Method: An important aspect of formulating a stable topical product. Data in Table 4 below gives 1 month and 3 month stability data at 40° C. Compounds were dissolved at 3% wt/wt or 0.4% wt/wt (if 3% was not possible) in HBSS buffer and stored in glass vials at temperature. Samples were subsequently analyzed by HPLC-UV.

[4] = Skin homogenate study (degradation half-life, LC-MS/MS); format: in vitro ADME, human; settings: for Half life in skin homogenate: pooled human skin homogenate, 37° C., compound working solution 40 μg/mL mixed with equal volume of homogenate; for degradation: summary in words, given as in vivo
Method: To identify which of the dipeptides was readily subject to degradation by proteases and other cell processes in the skin, a number of compounds where tested in a skin homogenate study as described below and the results are listed in table 3.
Dermatomed human skin from multiple skin donors was pooled, homogenized, and adjusted to a tissue concentration of 100 mg tissue per mL of homogenate. The homogenate was used immediately following preparation without any additional freeze/thaw cycles. Working solutions of each compound were prepared in Dulbecco's phosphate-buffered saline (DPBS) at 40 μg/mL. All solutions were pre-heated to 37° C. Equal volumes of skin homogenate and compound working solution were combined, mixed, held at 37° C., and sampled at 0, 15, 30, 60, 120, and 240 minutes. Samples were quenched with acidic acetonitrile, centrifuged, and prepared for LC-MS/MS analysis. Peak areas of each compound at each time-point were determined by LC-MS/MS.
The individual half-life of each dipeptide was determined.
The nature of the experiment should be considered indicative of the relative stability of each of the compounds rather than an absolute correlation to what would happen in vivo. The process of homogenizing the skin is likely to greatly accelerate the degradation. However, it is clear that there is substantial variation in the relative rates for each dipeptide. (See Table 3)

[5] = ACD/Labs calculated Log P; settings: summary in words, judged from Log P
Text: It is well known in the art that compounds for a given molecular weight with more extreme Log P values are less likely to permeate the skin barrier well. Whether that be extremely hydrophilic (Log P<−2) or extremely hydrophobic (Log P>2) (16).). All of the dipeptides have a molecular weight below 400 therefore a good approximation of their relative permeation potential is their Log P. According to the ACD/Labs calculated Log P values Ala-Gln is the one of the most hydrophilc in nature with a Log P of −4.4.

Row | Compound | Degree of carbamylation (% relative to HBSS control) [1] | scavenger potential [1] | solubility [2] | 1 month aqueous stability at 40° C. [3] | 3 month aqueous stability at 40° C. [3] | aqueous stability [3] | Half life in skin homogenate [4] | degradation [4] | transdermal penetration potential [5]
1 | C[C@H](N)C(=O)N[C@@H](CCC(N)=O)C(=O)O [Ala-Gln] (H-Ala-Gln-OH) | 34.8 % relative to HBSS control | good | good | 100.6 | 100.1 | good | <5 min | rapid | poor
2 | C[C@H](N)C(=O)N[C@@H](CCC(=O)O)C(=O)O [Ala-Glu] (H-Ala-Glu-OH) | 20.4 % relative to HBSS control | good | good | 99.1 | 99.0 | good | 39 min | rapid | poor
3 | NCC(=O)N[C@@H](CCCN=C(N)N)C(=O)O [Gly-Arg] (H-Gly-Arg-OH) |  | good | good |  |  | good | 45 min | rapid | poor
